Legend:
Experiment in all cases: relative viability (nuclei count vs DMSO), 5 days (fraction); higher = more cells survive
AZD5582 + Linsitinib = compound: C[C@@H](C(=O)N[C@@H](C1CCCCC1)C(=O)N2CCC[C@H]2C(=O)N[C@@H]3[C@@H](CC4=CC=CC=C34)OCC#CC#CCO[C@@H]5CC6=CC=CC=C6[C@@H]5NC(=O)[C@@H]7CCCN7C(=O)[C@H](C8CCCCC8)NC(=O)[C@H](C)NC)NC [AZD5582] + C[C@]1(O)C[C@@H](c2nc(-c3ccc4ccc(-c5ccccc5)nc4c3)c3c(N)nccn32)C1 [Linsitinib] (partner 1 µM)
In short: (§1)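 Relative viability divides the nuclei count in treated wells by that in vehicle wells. Lung cancer cell lines were seeded in 1536-well plates, dosed by pin tool the next day, and fixed and stained after 5 days in one step with final 0.05% Triton X-100, 1% formaldehyde and 1 ug/ml Hoechst. Dosing was a single drug or a fixed anchor-drug dose plus five library-drug doses (not always all listed) in √10 steps, and values are medians of duplicate plates imaged at 4×.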

[1] = compound: Cn1nnc2c(C(N)=O)ncn2c1=O [Temozolomide] + C[C@@H](Oc1cc(-c2cnn(C3CCNCC3)c2)cnc1N)c1c(Cl)ccc(F)c1Cl [Crizotinib] (partner 1 µM)
In short: as §1

Temozolomide + Olaparib = compound: Cn1nnc2c(C(N)=O)ncn2c1=O [Temozolomide] + O=C(c1cc(Cc2n[nH]c(=O)c3ccccc23)ccc1F)N1CCN(C(=O)C2CC2)CC1 [Olaparib] (partner 8 µM)
In short: as §1

[2] = compound: Cn1nnc2c(C(N)=O)ncn2c1=O [Temozolomide] + Nc1nc2[nH]cc(CCc3ccc(C(=O)N[C@@H](CCC(=O)O)C(=O)O)cc3)c2c(=O)[nH]1 [Pemetrexed] (partner 0.2 µM)
In short: as §1

Cell Line	relative viability (AZD5582 + Linsitinib; first compound 0.001581 µM)	relative viability (AZD5582 + Linsitinib; first compound 0.005 µM)	relative viability (AZD5582 + Linsitinib; first compound 0.01581 µM)	relative viability (AZD5582 + Linsitinib; first compound 0.05 µM)	relative viability ([1]; first compound 0.2 µM)	relative viability ([1]; first compound 0.6325 µM)	relative viability ([1]; first compound 2 µM)	relative viability ([1]; first compound 6.325 µM)	relative viability ([1]; first compound 20 µM)	relative viability (Temozolomide + Olaparib; first compound 0.2 µM)	relative viability (Temozolomide + Olaparib; first compound 0.6325 µM)	relative viability (Temozolomide + Olaparib; first compound 2 µM)	relative viability (Temozolomide + Olaparib; first compound 6.325 µM)	relative viability (Temozolomide + Olaparib; first compound 20 µM)	relative viability ([2]; first compound 0.2 µM)	relative viability ([2]; first compound 0.6325 µM)	relative viability ([2]; first compound 2 µM)	relative viability ([2]; first compound 6.325 µM)	relative viability ([2]; first compound 20 µM)
ABC-1	0.766	0.958	0.913	0.971	1.11	0.91	1.14	1.17	1.34	0.921	0.673	1.09	0.85	0.696					
NCI-H1734	0.953	0.869	0.895	1.1	0.707	0.704	0.684	0.647	0.656	0.708	0.586	0.577	0.614	0.373	0.398	0.422	0.431	0.394	0.386
EKVX	0.872	1.12	0.875	1.14	0.357	1.07	0.951	0.886	0.551		0.735	0.79	0.79	0.479		0.38	0.352	0.388	0.305
NCI-H1915	1.08	1.13	1.11	0.905	0.922	0.816	0.754	0.597	0.342	0.272	0.234	0.238	0.212	0.151	0.55	0.491	0.545	0.429	0.321
NCI-H1395	1.05	1.03		1.11						0.439	0.441	0.51	0.354	0.385	0.931	0.983	1.03	0.769	0.754
HCC-366	0.7	0.754	0.622	0.822	0.519	0.604	0.402	0.622	0.447	0.413	0.344	0.318	0.311	0.17	0.143	0.17	0.188	0.165	0.155
HCC-44	0.589	0.558	0.616	0.432	0.786	0.796	0.791	0.831	0.826	0.975	1.02	0.949	1.02	0.854	0.688	0.669	0.699	0.707	0.653
COR-L 105	0.923	1.02	0.909	1.17	0.739	0.913	0.827	0.787	0.841	0.585	0.577	0.636	0.661	0.693	1.12	1.07	1.02	1.06	1.06
LK-2		0.685	0.643	0.795	0.26	0.229	0.252	0.206	0.213	0.736	0.702	0.593	0.355	0.257	0.284	0.288	0.299	0.264	0.277

From the supplement of paper PMC10307832
